Assay results as given in publication PMC6193035, “Novel small molecules affecting cell membrane as potential therapeutics for avian pathogenic Escherichia coli” (Scientific Reports, 2018).
In brackets after ≈: the same amount, converted by molar mass.

Legend:
APEC O1 = test: MIC and MBC determination in M63 media; type: cell-based; details: Escherichia coli
APEC O8 = test: MIC and MBC determination in M63 media; type: cell-based; details: Escherichia coli
APEC O15 = test: MIC and MBC determination in M63 media; type: cell-based; details: Escherichia coli
APEC O18 = test: MIC and MBC determination in M63 media; type: cell-based; details: Escherichia coli
APEC O35 = test: MIC and MBC determination in M63 media; type: cell-based; details: Escherichia coli
APEC O109 = test: MIC and MBC determination in M63 media; type: cell-based; details: Escherichia coli
APEC O1-63 = test: MIC and MBC determination in M63 media; type: cell-based; details: Escherichia coli; APEC O1-63, M63 media
APEC O2-211 = test: MIC and MBC determination in M63 media; type: cell-based; details: Escherichia coli; APEC O2-211, M63 media
[1] = test system: STEC O157 and O26 strains; test: Activity against STEC strains at 100 µM in M63 media; type: cell-based, Escherichia coli
APEC O78 [2] = test: Bacterial cytological profiling by confocal microscopy; type: cell-based, Escherichia coli; details: 2X MBC, 2 h
Description: Confocal microscopy was used for bacterial cytological profiling (BCP) to identify the cellular pathways targeted by SMs as described previously. […] After incubation, treated cultures were centrifuged, washed, and resuspended in 100 µL PBS. FM4-64 (#T13320 Molecular Probes/Invitrogen) (1 µg/mL) and SYTO-9 (#S34854 Molecular Probes/Invitrogen) (5 µM) were added to the bacterial cultures and incubated for 45 mins at room temperature with shaking at 150 rpm. Cultures were then centrifuged, washed, and resuspended in PBS to 1/10th volume of the original cultures.

APEC O78 [3] = test: Crystal violet (CV) uptake assay; type: cell-based, Escherichia coli; details: 2X MBC, 30 mins; P < 0.05, Student's t-test
Description: Membrane permeability assays (crystal violet (CV) uptake and loss of 260/280 nm absorbing materials) were conducted as described previously. […] CV uptake was measured using the formula: (OD DMSO − OD SM/OD DMSO × 100). Two independent experiments in duplicates were conducted.

APEC O78 [4] = test: Primary screening, growth inhibition of APEC O78; type: cell-based, Escherichia coli; details: 100 µM SM; no APEC recovered on LB agar subculture
Description: To identify the APEC growth inhibitors, SM library was screened against APEC O78 which is one of the most frequently isolated APEC serotypes from avian colibacillosis cases. One microlitre SMs (final concentration of 100 µM) were added using a slotted pin tool (V and P Scientific, San Diego, CA, USA) to the wells of the 96-well plate containing 100 µL of overnight grown 0.05 OD600 (7 × 10^7 CFU/mL) adjusted APEC culture. Controls (four replicates/plate) containing 1 µL of 100% DMSO (final concentration of 1%), 1 µL chloramphenicol (CHL, #C0378 Sigma-Aldrich) (20 µg/mL), 1 µL kanamycin (KAN, #60615 Sigma-Aldrich) (50 µg/mL), and 100 µL of M63 media were included. To determine the effect of DMSO on APEC growth, antimicrobial activity of DMSO was determined at different concentrations (1% to 32%) in a separate experiment. Plate was then incubated at 37 °C for 12 h in Sunrise - Absorbance microplate reader (Tecan Group Ltd. San Jose, CA) with kinetic OD600 measurement every 30 mins. The quality of screening was assessed by calculating the Z′-score as described previously. The growth inhibition of APEC was calculated by using the formula as previously described[13],[14]. The SMs inhibiting at least 80% of the APEC growth were selected as primary hits. […]

APEC O78 [5] = test: Scanning electron microscopy; type: cell-based, Escherichia coli; details: 2X MBC
Description: The SMs treated APEC O78 cultures prepared above were also processed for scanning electron microscopy (SEM) as described previously. […] Briefly, one volume of bacterial culture was mixed with one volume of fixative (3% glutaraldehyde, 1% paraformaldehyde in 0.1 M potassium phosphate buffer, pH 7.2), and incubated at 4 °C overnight. The fixed bacterial cells were then centrifuged for 5 mins at 1,200 × g, washed twice with PBS, and resuspended in 1% osmium tetroxide for 1 h at room temperature in the dark, followed by serial dehydration of the sample in ethanol and platinum splatter-coating. Visualization and imaging of the sample was performed using a Hitachi S-4700 scanning electron microscope.

[6] = test system: E. coli Nissle 1917 and E. coli G58-1; test: Effect against beneficial microbes; type: cell-based, Escherichia coli; details: 100 µM
Description: SMs were screened against different beneficial microbes to determine their specificity as described previously. SMs were added at 100 µM to 100 µL of 0.05 OD600 adjusted bacterial cultures in specific growth media in 96-well plate, and plate was incubated under indicated conditions. The specific growth media and conditions required for beneficial microbes limited the use of minimal media. Following incubation, endpoint OD600 was measured and cultures from the wells with non-elevated OD600 were plated on selective agar plates to determine the bactericidal effect.

E. coli BW25113 = test system: E. coli BW25113; set-up: method as in https://pubchem.ncbi.nlm.nih.gov/bioassay/710; details: 100 µM; ref https://pubchem.ncbi.nlm.nih.gov/bioassay/710; cited from earlier work

| Structure (SMILES) | MBC (APEC O1) [µM] | MIC (APEC O1) [µM] | MBC (APEC O8) [µM] | MIC (APEC O8) [µM] | MBC (APEC O15) [µM] | MIC (APEC O15) [µM] | MBC (APEC O18) [µM] | MIC (APEC O18) [µM] | MBC (APEC O35) [µM] | MIC (APEC O35) [µM] | MBC (APEC O109) [µM] | MIC (APEC O109) [µM] | MBC (APEC O1-63) [µM] | MIC (APEC O1-63) [µM] | MBC (APEC O2-211) [µM] | MIC (APEC O2-211) [µM] | bactericidal activity against STEC strains [1] | cytological profile (FM4-64 / SYTO-9 staining) (APEC O78 [2]) | uptake of crystal violet compared with DMSO (APEC O78 [3]) | cell morphology in SEM (APEC O78 [5]) | also measured |
| --- | --- | --- | --- | --- | --- | --- | --- | --- | --- | --- | --- | --- | --- | --- | --- | --- | --- | --- | --- | --- | --- |
| COc1ccc(CCN(Cc2cc3c(cc2Cl)OCO3)CC2CCN(C)CC2)cc1 [SM11] | 100 (≈ 43.1 µg/mL) | 100 (≈ 43.1 µg/mL) | 200 (≈ 86.2 µg/mL) | 200 (≈ 86.2 µg/mL) | 100 (≈ 43.1 µg/mL) | 100 (≈ 43.1 µg/mL) | 200 (≈ 86.2 µg/mL) | 200 (≈ 86.2 µg/mL) | 200 (≈ 86.2 µg/mL) | 100 (≈ 43.1 µg/mL) | 200 (≈ 86.2 µg/mL) | 200 (≈ 86.2 µg/mL) | 200 (≈ 86.2 µg/mL) | 100 (≈ 43.1 µg/mL) | 100 (≈ 43.1 µg/mL) | 100 (≈ 43.1 µg/mL) | not cidal | bright red foci at random positions throughout the cell indicating membrane defects (membrane pore formers) | increased the uptake of crystal violet | – | – |
| CC1CCCN(CCC(=O)c2ccc(Br)cc2)C1 (stereo not drawn) [SM1] | 250 (≈ 77.6 µg/mL) | 200 (≈ 62 µg/mL) | 200 (≈ 62 µg/mL) | 200 (≈ 62 µg/mL) | 250 (≈ 77.6 µg/mL) | 200 (≈ 62 µg/mL) | 200 (≈ 62 µg/mL) | 200 (≈ 62 µg/mL) | 200 (≈ 62 µg/mL) | 200 (≈ 62 µg/mL) | 200 (≈ 62 µg/mL) | 200 (≈ 62 µg/mL) | 250 (≈ 77.6 µg/mL) | 200 (≈ 62 µg/mL) | 200 (≈ 62 µg/mL) | 200 (≈ 62 µg/mL) | not cidal | filamentous or short rods (spheroplasts) morphology (PG synthesis inhibitors) | increased the uptake of crystal violet | – | bactericidal effect in primary screening (APEC O78 [4]): bactericidal |
| COc1cc(CNCCc2ccc(C)cc2)ccc1OCC(O)CN1CCCC1 (stereo not drawn) [SM3] | 200 (≈ 79.7 µg/mL) | 100 (≈ 39.9 µg/mL) | 100 (≈ 39.9 µg/mL) | 100 (≈ 39.9 µg/mL) | 100 (≈ 39.9 µg/mL) | 100 (≈ 39.9 µg/mL) | 100 (≈ 39.9 µg/mL) | 100 (≈ 39.9 µg/mL) | 200 (≈ 79.7 µg/mL) | 100 (≈ 39.9 µg/mL) | 200 (≈ 79.7 µg/mL) | 100 (≈ 39.9 µg/mL) | 200 (≈ 79.7 µg/mL) | 200 (≈ 79.7 µg/mL) | 100 (≈ 39.9 µg/mL) | 100 (≈ 39.9 µg/mL) | – | bright red foci at random positions throughout the cell indicating membrane defects (membrane pore formers) | increased the uptake of crystal violet | blebbing and pore at single cell pole, respectively | – |
| CC(=O)OC(C(Br)C(=O)c1ccc([N+](=O)[O-])cc1)C(Cl)(Cl)Cl (stereo not drawn) [SM10] | 25 (≈ 10.8 µg/mL) | 25 (≈ 10.8 µg/mL) | 50 (≈ 21.7 µg/mL) | 50 (≈ 21.7 µg/mL) | 100 (≈ 43.3 µg/mL) | 50 (≈ 21.7 µg/mL) | 100 (≈ 43.3 µg/mL) | 25 (≈ 10.8 µg/mL) | 50 (≈ 21.7 µg/mL) | 25 (≈ 10.8 µg/mL) | 50 (≈ 21.7 µg/mL) | 25 (≈ 10.8 µg/mL) | 100 (≈ 43.3 µg/mL) | 50 (≈ 21.7 µg/mL) | 50 (≈ 21.7 µg/mL) | 25 (≈ 10.8 µg/mL) | – | filamentous or short rods (spheroplasts) morphology (PG synthesis inhibitors) | increased the uptake of crystal violet | shortened cells (~0.5 µM) and blebbing at both cell poles | effect on E. coli Nissle 1917 and E. coli G58-1 [6]: did not have effect |
| COc1cc(CNCCc2ccc3ccccc3c2)ccc1OCC(O)CN1CCCC1 (stereo not drawn) [SM2] | 250 (≈ 109 µg/mL) | 200 (≈ 86.9 µg/mL) | 200 (≈ 86.9 µg/mL) | 100 (≈ 43.5 µg/mL) | 100 (≈ 43.5 µg/mL) | 100 (≈ 43.5 µg/mL) | 200 (≈ 86.9 µg/mL) | 100 (≈ 43.5 µg/mL) | 200 (≈ 86.9 µg/mL) | 100 (≈ 43.5 µg/mL) | 200 (≈ 86.9 µg/mL) | 100 (≈ 43.5 µg/mL) | 250 (≈ 109 µg/mL) | 200 (≈ 86.9 µg/mL) | 100 (≈ 43.5 µg/mL) | 100 (≈ 43.5 µg/mL) | not cidal | bright red foci at random positions throughout the cell indicating membrane defects (membrane pore formers) | increased the uptake of crystal violet | – | – |
| CCN1/C(=C/c2ccc3ccccc3[n+]2CC)C=Cc2ccccc21 [SM9] | 50 | 25 | 50 | 25 | 100 | 25 | 100 | 25 | 50 | 25 | 50 | 25 | 100 | 50 | 25 | 25 | – | filamentous or short rods (spheroplasts) morphology (PG synthesis inhibitors) | increased the uptake of crystal violet | – | effect on E. coli Nissle 1917 and E. coli G58-1 [6]: did not have effect; growth inhibition of E. coli BW25113 (E. coli BW25113): 57% |
| CC1CCC(C(C)C)C(OC(=O)Cn2c[n+](CC(=O)OC3CC(C)CCC3C(C)C)c3ccccc32)C1 (stereo not drawn) [SM4] | 50 | 25 | 25 | 25 | 25 | 25 | 50 | 25 | 25 | 25 | 25 | 25 | 50 | 25 | 25 | 25 | – | absence of FM4-64 stained membrane (membrane disruptors) | – | severe wrinkling and multiple blebbing throughout the cells (membrane disruptors) | – |
